Source: patent publication US20060293307A1, “Oxazolidinone derivatives as antimicrobials” (priority 2002, published 2006)
Converted amounts (≈) assume the structure as drawn. Where two headings read alike, the source gives them in different places.

Tests used:
S. pneumoniae AB-3 = test: MIC, agar incorporation method; format: cell-based, Streptococcus pneumoniae
E. faecalis 29212 = test: MIC, agar incorporation method; format: cell-based
S. pneumoniae AB 17 = test: MIC, agar incorporation method; format: cell-based, Streptococcus pneumoniae
S. pneumoniae ATCC 6303 = test: MIC, agar incorporation method; format: cell-based, Streptococcus pneumoniae
S. pneumoniae AB 14 = test: MIC, agar incorporation method; format: cell-based, Streptococcus pneumoniae
S. aureus ATCC29213 = test: MIC, agar incorporation method; format: cell-based, Staphylococcus aureus
S. pneumoniae AB 22 = test: MIC, agar incorporation method; format: cell-based, Streptococcus pneumoniae
H. influenzae R = test: MIC against Haemophilus strains; format: cell-based; settings: s. No. 4, H. influenzae R
S. warnerii ST360 = test: MIC, agar incorporation method; format: cell-based
S. pneumoniae CS1221 = test: MIC, agar incorporation method; format: cell-based, Streptococcus pneumoniae
S. pneumoniae AB 31 = test: MIC, agar incorporation method; format: cell-based, Streptococcus pneumoniae
S. pyogenes 25147 = test: MIC, agar incorporation method; format: cell-based, Streptococcus pyogenes
[1] = system: S. epidermidis (MRSE)32965; test: MIC, agar incorporation method; format: cell-based, Staphylococcus epidermidis
S. pneumoniae CS 1687 = test: MIC, agar incorporation method; format: cell-based, Streptococcus pneumoniae
S. epidermidis 358 = test: MIC, agar incorporation method; format: cell-based, Staphylococcus epidermidis
Moraxella M1 = test: MIC, agar incorporation method; format: cell-based
S. epidermidis 823 = test: MIC, agar incorporation method; format: cell-based, Staphylococcus epidermidis
S. aureus ATCC 25923 = test: MIC, agar incorporation method; format: cell-based, Staphylococcus aureus
H. influenzae ATCC 49247 = test: MIC against Haemophilus strains; format: cell-based; settings: s. No. 2, H. influenzae ATCC 49247
E. coli 25922 = test: MIC, agar incorporation method; format: cell-based
[2] = system: S. epidermidis ATCC 12228; test: MIC, agar incorporation method; format: cell-based, Staphylococcus epidermidis
E. faecium 6A (VRE) = test: MIC, agar incorporation method; format: cell-based, Enterococcus faecium
S. aureus (MRSA) ST450 = test: MIC, agar incorporation method; format: cell-based, Staphylococcus aureus
(MRSA) 562 = test: MIC, agar incorporation method; format: cell-based, Staphylococcus aureus
S. haemo ATCC 29970 = test: MIC, agar incorporation method; format: cell-based
H. influenzae 474 = test: MIC against Haemophilus strains; format: cell-based; settings: s. No. 11, H. influenzae 474
S. aureus (Smith 49951) = test: MIC, agar incorporation method; format: cell-based, Staphylococcus aureus
Acinetobacter 9956 = test: MIC, agar incorporation method; format: cell-based

SMILES: CC(=O)NC[C@H]1CN(c2ccc(N3CCN(c4ccc([N+](=O)[O-])s4)CC3)cc2)C(=O)O1 [Compound No. 6, (S)—N-[[3-[4-[N-1-(5-nitro-2-thienyl)piperazinyl]-phenyl]-2-oxo-5-oxazolidinyl]-methyl]-acetamide]
- MIC (S. pneumoniae AB-3; S. No. 32, S. pneumoniae AB-3): 0.25 µg/mL (≈ 0.561 µM)
- MIC (E. faecalis 29212; S. No. 17, E. faecalis 29212): 1 µg/mL (≈ 2.24 µM)
- MIC (S. pneumoniae AB 17; S. No. 40, S. pneumoniae AB 17): 0.25 µg/mL (≈ 0.561 µM)
- MIC (S. pneumoniae ATCC 6303; S. No. 50, S. pneumoniae ATCC 6303): 0.5 µg/mL (≈ 1.12 µM)
- MIC (S. pneumoniae AB 14; S. No. 37, S. pneumoniae AB 14): <0.125 µg/mL
- MIC (S. aureus ATCC29213; S. No. 2, S. aureus ATCC29213): 2 µg/mL (≈ 4.49 µM)
- MIC (S. pneumoniae AB 22; S. No. 42, S. pneumoniae AB 22): 0.25 µg/mL (≈ 0.561 µM)
- MIC (H. influenzae R): 16 µg/mL (≈ 35.9 µM)
- MIC (S. warnerii ST360; S. No. 16, S. warnerii ST360): 1 µg/mL (≈ 2.24 µM)
- MIC (S. pneumoniae CS1221; S. No. 34, S. pneumoniae CS1221): 0.25 µg/mL (≈ 0.561 µM)
- MIC (S. pneumoniae AB 31; S. No. 36, S. pneumoniae AB 31): 0.5 µg/mL (≈ 1.12 µM)
- MIC (S. pyogenes 25147; S. No. 52, S. pyogenes 25147): 0.5 µg/mL (≈ 1.12 µM)
- MIC ([1]; S. No. 13, S. epidermidis (MRSE)32965): 1 µg/mL (≈ 2.24 µM)
- MIC (S. pneumoniae CS 1687; S. No. 44, S. pneumoniae CS 1687): 0.5 µg/mL (≈ 1.12 µM)
- MIC (S. epidermidis 358; S. No. 14, S. epidermidis 358): 1 µg/mL (≈ 2.24 µM)
- MIC (Moraxella M1; S. No. 58, Moraxella M1): >16 µg/mL
- MIC (S. epidermidis 823; S. No. 12, S. epidermidis 823): 1 µg/mL (≈ 2.24 µM)
- MIC (S. aureus ATCC 25923; S. No. 1, organism cell empty): 2 µg/mL (≈ 4.49 µM)
- MIC (H. influenzae ATCC 49247): 16 µg/mL (≈ 35.9 µM)
- MIC (E. coli 25922; S. No. 25, E. coli 25922): >16 µg/mL
- MIC ([2]; S. No. 10, S. epidermidis ATCC 12228): 1 µg/mL (≈ 2.24 µM)
- MIC (E. faecium 6A (VRE); S. No. 21, E. faecium 6A (VRE)): 1 µg/mL (≈ 2.24 µM)
- MIC (S. aureus (MRSA) ST450; S. No. 6, S. aureus (MRSA) ST450): 2 µg/mL (≈ 4.49 µM)
- MIC ((MRSA) 562; S. No. 8, (MRSA) 562): 1 µg/mL (≈ 2.24 µM)
- MIC (S. haemo ATCC 29970; S. No. 15, S. haemo ATCC 29970): 1 µg/mL (≈ 2.24 µM)
- MIC (H. influenzae 474): 16 µg/mL (≈ 35.9 µM)
- MIC (S. aureus (Smith 49951); S. No. 9, S. aureus (Smith 49951)): 1 µg/mL (≈ 2.24 µM)
- MIC (Acinetobacter 9956; S. No. 30, Acinetobacter 9956): >16 µg/mL

SMILES: CN[C@H](CC(C)C)C(=O)N[C@H]1C(=O)N[C@@H](CC(N)=O)C(=O)N[C@H]2C(=O)N[C@H]3C(=O)N[C@H](C(=O)N[C@H](C(=O)O)c4cc(O)cc(O)c4-c4cc3ccc4O)[C@H](O)c3ccc(c(Cl)c3)Oc3cc2cc(c3O[C@@H]2O[C@H](CO)[C@@H](O)[C@H](O)[C@H]2O[C@H]2C[C@](C)(N)[C@H](O)[C@H](C)O2)Oc2ccc(cc2Cl)[C@H]1O [Vancomycin, reference compound]
- MIC (S. pneumoniae AB-3; Streptococcus pneumoniae, AB3): 0.5 µg/mL (≈ 0.345 µM)
- MIC (E. faecalis 29212; Enterococcus faecalis, 29212): 4 µg/mL (≈ 2.76 µM)
- MIC (S. pneumoniae AB 17; Streptococcus pneumoniae, AB17): 0.25 µg/mL (≈ 0.173 µM)
- MIC (S. pneumoniae ATCC 6303; Streptococcus pneumoniae, ATCC6303): 0.25 µg/mL (≈ 0.173 µM)
- MIC (S. pneumoniae AB 14; Streptococcus pneumoniae, AB14): 0.25 µg/mL (≈ 0.173 µM)
- MIC (S. aureus ATCC29213; Staphylococcus aureus, ATCC29213): 0.5 µg/mL (≈ 0.345 µM)
- MIC (S. pneumoniae AB 22; Streptococcus pneumoniae, AB22): 0.25 µg/mL (≈ 0.173 µM)
- MIC (S. warnerii ST360): 0.5 µg/mL (≈ 0.345 µM)
- MIC (S. pneumoniae CS1221; Streptococcus pneumoniae, CS1221): 0.25 µg/mL (≈ 0.173 µM)
- MIC (S. pneumoniae AB 31; Streptococcus pneumoniae, AB31): 0.25 µg/mL (≈ 0.173 µM)
- MIC (S. pyogenes 25147; Streptococcus pyogenes, 25147): 0.5 µg/mL (≈ 0.345 µM)
- MIC ([1]; Staphylococcus epidermidis, MRSE): 2 µg/mL (≈ 1.38 µM)
- MIC (S. pneumoniae CS 1687; Streptococcus pneumoniae, CS1687): 0.25 µg/mL (≈ 0.173 µM)
- MIC (S. epidermidis 358; Staphylococcus epidermidis, 358): 2 µg/mL (≈ 1.38 µM)
- MIC (Moraxella M1; Moraxella, M1): > 8 µg/mL
- MIC (S. epidermidis 823; Staphylococcus epidermidis, 823): 2 µg/mL (≈ 1.38 µM)
- MIC (S. aureus ATCC 25923; Staphylococcus aureus, ATCC25923): 1 µg/mL (≈ 0.69 µM)
- MIC (E. coli 25922; Escherichia coli, 25922): > 16 µg/mL
- MIC ([2]; Staphylococcus epidermidis, ATCC12228): 1 µg/mL (≈ 0.69 µM)
- MIC (E. faecium 6A (VRE); Enterococcus faecium, VRE): > 16 µg/mL
- MIC (S. aureus (MRSA) ST450; Staphylococcus aureus, MRSA): 0.5 µg/mL (≈ 0.345 µM)
- MIC ((MRSA) 562; Staphylococcus aureus, MRSA): 1 µg/mL (≈ 0.69 µM)
- MIC (S. haemo ATCC 29970): 1 µg/mL (≈ 0.69 µM)
- MIC (S. aureus (Smith 49951); Staphylococcus aureus): 1 µg/mL (≈ 0.69 µM)
- MIC (Acinetobacter 9956; Acinetobacter, 9956): > 16 µg/mL
